Experimental data: ChEMBL document CHEMBL1201862, “PubChem BioAssay data set” (2004)
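1) Cells in 96-well plates. 2) Compound, 48 h, 5 concentrations. 3) Linear interpolation between surrounding doses. 4) Unreached endpoint = highest concentration. Abbreviation: GI50, concentration required for 50% inhibition of growth.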 The source made the active and inactive calls. Cut-off read from the data, not from the text of the source: active = GI50 up to about 1.1 µM and inactive = higher.

How the values were obtained:
Test in all cases: inhibition of tumour cell growth, NCI panel, 48 h
[1] = system: UACC-257
[2] = system: LOX IMVI
[3] = system: SW-620
[4] = system: IGROV-1
[5] = system: TK-10
[6] = system: SK-MEL-2
[7] = system: UO-31
[8] = system: U-251
[9] = system: SNB-19
[10] = system: NCI-H226
[11] = system: K562
[12] = system: ACHN
[13] = system: HCT-116
[14] = system: SF-295
[15] = system: NCI-H23
[16] = system: HCC 2998
[17] = system: 786-0
[18] = system: CAKI-1

Measured: GI50

COc1ccc2c(CN3CCCCC3CO)cc3cc(OC)c(OC)cc3c2c1 (stereo not given)
inactive: [1] 3.82 µM | [2] 3.32 µM | [3] 3.88 µM | [4] 13.2 µM | [5] 4.7 µM | [6] 4.17 µM | [7] 2.87 µM | [8] 5.85 µM | [9] 4.04 µM | [10] 4.32 µM | [11] 2.59 µM | [12] 3.5 µM | [13] 1.75 µM | [14] 3.02 µM | [15] 3.81 µM | [16] 7.59 µM | [17] 4.8 µM

COc1cccc2c1OC1Sc3ccccc3-c3nn(-c4ccccc4)c-2c31 (stereo not given)
inactive: [1] > 100 µM | [2] > 100 µM | [3] > 100 µM | [4] > 100 µM | [5] > 100 µM | [6] > 100 µM | [7] > 100 µM | [8] > 100 µM | [11] > 100 µM | [12] > 100 µM | [13] > 100 µM | [14] > 100 µM | [15] > 100 µM | [16] > 100 µM | [17] > 100 µM

COC1OC(CBr)C(OC(=O)c2ccccc2)C(O)C1Br (stereo not given)
inactive: [1] > 10 µM | [2] > 100 µM | [3] > 100 µM | [4] > 10 µM | [5] > 100 µM | [8] > 100 µM | [9] > 100 µM | [10] > 100 µM | [11] > 100 µM | [13] > 100 µM | [14] > 100 µM | [15] > 100 µM | [16] > 100 µM | [18] > 100 µM | [17] > 100 µM

CN(C(=N)c1ccccc1)c1ccccc1
inactive: [2] 84.7 µM | [3] > 100 µM | [4] > 100 µM | [5] > 100 µM | [6] > 100 µM | [7] > 100 µM | [8] > 100 µM | [9] > 100 µM | [10] > 100 µM | [11] > 100 µM | [13] > 100 µM | [14] > 100 µM | [15] > 100 µM | [16] > 100 µM | [17] > 100 µM

O=C(CSc1nnc(-c2ccc(/N=C\c3ccc(Cl)cc3)cc2)o1)Nc1ccccc1Cl
inactive: [1] 20.7 µM | [2] > 100 µM | [3] > 100 µM | [5] > 100 µM | [6] > 100 µM | [7] > 100 µM | [8] > 100 µM | [9] > 100 µM | [10] > 100 µM | [11] > 100 µM | [12] > 100 µM | [13] > 100 µM | [14] > 100 µM | [15] > 100 µM | [17] > 100 µM

COc1nc(=O)n(COC(CO)CN2C(=O)c3ccccc3C2=O)cc1Cc1cccc(OCc2ccccc2)c1 (stereo not given)
inactive: [2] 20.1 µM | [3] 42.7 µM | [4] 24.8 µM | [5] 27 µM | [6] 15.4 µM | [7] 16.3 µM | [8] 21.9 µM | [9] 29.6 µM | [10] 17.4 µM | [11] 24.9 µM | [12] 23.7 µM | [13] 29.4 µM | [14] 22.1 µM | [15] 27.2 µM | [16] 20.7 µM | [17] > 10 µM

Cc1ccc2nc(N)[nH]c(=O)c2c1Sc1ccncc1
inactive: [1] > 100 µM | [2] 11.2 µM | [3] > 100 µM | [4] > 71.6 µM | [5] > 100 µM | [6] > 100 µM | [7] 64.1 µM | [8] > 51.1 µM | [9] > 100 µM | [11] 15.8 µM | [12] 7.35 µM | [13] 15.5 µM | [14] 8.07 µM | [15] 60.3 µM | [16] 1.36 µM | [18] 31.6 µM | [17] 12.2 µM

CC1(c2ccccc2)CC(c2ccccc2)=NO1 (stereo not given)
inactive: [1] > 100 µM | [3] > 100 µM | [4] > 100 µM | [5] > 100 µM | [6] > 100 µM | [7] > 100 µM | [8] > 100 µM | [9] > 100 µM | [10] > 100 µM | [11] > 100 µM | [12] > 100 µM | [13] > 100 µM | [14] > 100 µM | [15] > 100 µM | [16] > 100 µM | [18] > 100 µM | [17] > 100 µM

O=c1nc(NC(c2ccccc2)(c2ccccc2)c2ccccc2)ccn1CCO
inactive: [1] > 100 µM | [2] 75.9 µM | [3] > 100 µM | [4] > 100 µM | [5] > 100 µM | [6] > 100 µM | [7] > 100 µM | [8] > 100 µM | [9] > 100 µM | [10] > 100 µM | [11] 58.7 µM | [12] 48.5 µM | [13] 61.1 µM | [14] 61.1 µM | [15] > 100 µM | [16] > 100 µM | [17] > 100 µM

CC(=O)c1c(O)ccc2c1CC(CC=O)O2 (stereo not given)
inactive: [1] > 100 µM | [2] 19.9 µM | [3] 43.9 µM | [4] > 100 µM | [5] > 100 µM | [7] 63.2 µM | [8] 83.9 µM | [9] > 100 µM | [10] > 100 µM | [11] > 100 µM | [12] > 100 µM | [13] 19.7 µM | [14] > 100 µM | [15] 53.6 µM | [16] > 100 µM | [18] > 100 µM | [17] 69.7 µM

C/C(=N\NC(=O)c1ccccc1O)c1c(O)cc(C)oc1=O
inactive: [1] 60 µM | [2] 76 µM | [3] > 100 µM | [4] 34.2 µM | [5] > 100 µM | [6] > 100 µM | [7] 31.5 µM | [8] 37.7 µM | [9] 63.5 µM | [10] 34.3 µM | [11] 72.6 µM | [12] 45 µM | [13] 49.4 µM | [14] 51.4 µM | [15] 84.1 µM | [16] 92 µM | [17] > 100 µM

Cc1cccc(C)c1N1C(=O)C(=O)C(c2nc3ccccc3s2)/C(=N/NC(=O)NN)C1=O (stereo not given)
inactive: [1] > 100 µM | [3] > 100 µM | [4] > 100 µM | [5] > 100 µM | [6] > 100 µM | [7] > 100 µM | [8] > 100 µM | [9] > 100 µM | [10] > 100 µM | [12] > 100 µM | [13] > 100 µM | [14] > 100 µM | [15] > 100 µM | [16] > 100 µM | [18] > 100 µM | [17] > 100 µM

COC(=O)C1=CC2C(=O)OC1C1C(=O)NC(=O)C21 (stereo not given)
inactive: [1] > 100 µM | [2] > 100 µM | [3] > 100 µM | [4] > 100 µM | [5] > 100 µM | [7] > 100 µM | [8] > 100 µM | [9] > 100 µM | [11] > 100 µM | [12] > 100 µM | [13] > 100 µM | [14] > 100 µM | [15] > 100 µM | [16] > 100 µM | [18] > 100 µM | [17] > 100 µM

CCCCCCCCCCCCNC(=S)OCCCC
inactive: [1] 35.7 µM | [2] 15.8 µM | [3] > 100 µM | [4] > 100 µM | [5] 19.7 µM | [6] 17.2 µM | [7] > 100 µM | [8] 63.7 µM | [9] > 100 µM | [11] 65.3 µM | [12] > 100 µM | [13] 50.7 µM | [14] > 100 µM | [15] > 100 µM | [16] > 100 µM | [18] > 100 µM | [17] > 100 µM

CN1N=C2c3ccccc3CC[C@H]2C1c1ccccc1 (stereo not given in full)
inactive: [1] 22.3 µM | [2] 47.1 µM | [3] 78.2 µM | [4] 85.5 µM | [5] > 100 µM | [6] 24.5 µM | [7] 19.4 µM | [8] 53.5 µM | [9] 69.2 µM | [10] 27.9 µM | [11] > 100 µM | [12] 44.3 µM | [13] 18 µM | [14] 35.3 µM | [15] 16.1 µM | [16] 85.7 µM | [17] 63.5 µM

Brc1ccc(C[N+]23CN4CN(CN(C4)C2)C3)cc1
inactive: [1] 30.5 µM | [2] 18.8 µM | [3] 22.8 µM | [4] > 100 µM | [5] > 100 µM | [7] 50.5 µM | [8] 69.3 µM | [9] > 100 µM | [11] 25.4 µM | [12] 44.6 µM | [13] 28.1 µM | [14] > 100 µM | [15] 29.1 µM | [16] 47.1 µM | [17] 30.6 µM

CC(C)C(N)=O [ISOBUTYRAMIDE]
inactive: [1] > 5000 µM | [2] > 5000 µM | [3] > 5000 µM | [4] > 5000 µM | [5] > 5000 µM | [6] > 5000 µM | [7] > 5000 µM | [8] > 5000 µM | [10] > 5000 µM | [11] > 5000 µM | [12] > 5000 µM | [13] > 5000 µM | [14] > 5000 µM | [15] > 5000 µM | [18] > 5000 µM | [17] > 5000 µM
